Test results from patent US10206394B2, “Herbicidal compounds” (Syngenta Participations AG, priority 2014, dated 2019).
Like-named read-outs stand apart in the source and are kept apart here.

What was measured:
Assay type in all cases: in vivo
[1] = tested on: Alopecurus myosuroides (ALOMY); assay: Glasshouse assay for herbicidal activity (pre- and post-emergence), percentage phytotoxicity; conditions: Alopecurus myosuroides, Rate 250 g/ha, 100%=total damage, 0%=no damage
Summary of the method: (§1)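 Potted test plants in standard soil received the compound pre-emergence (day 1) or post-emergence (about day 12). Evaluation: visual damage score from 0% (none) to 100% (total), 15 days after application post-emergence, 20 days pre-emergence.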

Avena fatua (AVEFA) = assay: as above; conditions: Avena fatua, Rate 250 g/ha, 100%=total damage, 0%=no damage
Summary of the method: as §1

[2] = tested on: Echinochloa crus-galli (ECHCG); assay: as above; conditions: Echinochloa crus-galli, Rate 250 g/ha, 100%=total damage, 0%=no damage
Summary of the method: as §1

Lolium perenne (LOLPE) = assay: as above; conditions: Lolium perenne, Rate 250 g/ha, 100%=total damage, 0%=no damage
Summary of the method: as §1

[3] = tested on: Winter Wheat variety 'Hereward'; assay: Glasshouse assay for crop safety, post-emergence, +/- safener cloquintocet-mexyl (CQC), percentage phytotoxicity; conditions: 250 g/ha, evaluated after 13 days, 100=total damage, 0=no damage; for Post-emergence Crop Selectivity, percentage phytotoxicity, Wheat +CQC: with safener cloquintocet-mexyl (CQC) seed treatment 0.5 g/kg seed; for Post-emergence Crop Selectivity, percentage phytotoxicity, Wheat − CQC: without safener cloquintocet-mexyl (CQC)
Text: Test—Glasshouse Assay for Crop Safety.
Seeds of the Winter Wheat variety ‘Hereward’ were seed treated with a wettable powder formulation of the cereal herbicide safener, cloquintocet mexyl, at a rate of 0.5 grams per kilogram of dry seed prior to the initiation of glasshouse testing. Three seeds were sown per 1.5 inch plastic pot into a sandy loam soil at a depth of 1 cm, 8 days prior to application of the test compounds and was watered and grown under controlled conditions in a glasshouse (at 24/16° C., day/night; 14 hours light; 65% humidity). The plants were sprayed Post-emergence with an aqueous spray solution derived from the formulation of the technical active ingredient in acetone/water (50:50) solution containing 0.5% Tween 20 (polyoxyethelyene sorbitan monolaurate, CAS RN 9005-64-5).
The test plants were then grown in a glasshouse under controlled conditions (at 24/16° C., day/night; 14 hours light; 65% humidity) and watered twice daily. After 13 days for pre and post-emergence, the test was evaluated (100=total damage to plant; 0=no damage to plant).

[4] = pre-emergence, 480 h, pre-emergence, assessed visually 20 DAA, read-out: Pre-emergence herbicidal activity (percentage phytotoxicity) ALOMY PRE
[5] = pre-emergence, 480 h, pre-emergence, assessed visually 20 DAA, read-out: Pre-emergence herbicidal activity (percentage phytotoxicity) AVEFA PRE
[6] = post-emergence, 360 h, post-emergence, assessed visually 15 DAA, read-out: Post-emergence herbicidal activity (percentage phytotoxicity) ECHCG POST
[7] = pre-emergence, 480 h, pre-emergence, assessed visually 20 DAA, read-out: Pre-emergence herbicidal activity (percentage phytotoxicity) ECHCG PRE
[8] = post-emergence, 360 h, post-emergence, assessed visually 15 DAA, read-out: Post-emergence herbicidal activity (percentage phytotoxicity) LOLPE POST
[9] = pre-emergence, 480 h, pre-emergence, assessed visually 20 DAA, read-out: Pre-emergence herbicidal activity (percentage phytotoxicity) LOLPE PRE
[10] = post-emergence, 360 h, post-emergence, assessed visually 15 DAA, read-out: Post-emergence herbicidal activity (percentage phytotoxicity) ALOMY POST
[11] = post-emergence, 360 h, post-emergence, assessed visually 15 DAA, read-out: Post-emergence herbicidal activity (percentage phytotoxicity) AVEFA POST

Row | Structure (SMILES) | pest or weed control at 250 g/ha [1, 4] [%] | pest or weed control at 250 g/ha (Avena fatua (AVEFA); [5]) [%] | pest or weed control at 250 g/ha [2, 6] [%] | pest or weed control at 250 g/ha [2, 7] [%] | pest or weed control at 250 g/ha (Lolium perenne (LOLPE); [8]) [%] | pest or weed control at 250 g/ha (Lolium perenne (LOLPE); [9]) [%] | Post-emergence Crop Selectivity, percentage phytotoxicity, Wheat +CQC [3] [%] | Post-emergence Crop Selectivity, percentage phytotoxicity, Wheat − CQC [3] [%] | pest or weed control at 250 g/ha [1, 10] [%] | pest or weed control at 250 g/ha (Avena fatua (AVEFA); [11]) [%]
1 | Cc1cc(-c2cncnc2)cc(C)c1C1C(=O)CC(CC(=O)NCc2cccc(Cl)c2)C1=O (stereo not shown) [Compound A142] | 0 | 0 | 60 | 30 | 20 | 20 | 50 | 70 | – | –
2 | Cc1cc(C)c(C2C(=O)CC(CC(=O)NC3(c4ccccn4)CC3)C2=O)c(C)c1 (stereo not shown) [Compound A18] | 60 | 20 | 70 | 60 | 80 | 60 | 20 | 70 | 70 | 50
3 | Cc1cc(C)c(C2C(=O)CC(CC(=O)NC(C)C)C2=O)c(C)c1 (stereo not shown) [Compound A7] | 80 | 60 | 100 | 90 | 100 | 100 | 20 | 30 | 90 | 90
4 | CCC(C)(C)NC(=O)CC1CC(=O)C(c2c(C)cc(C)cc2C)C1=O (stereo not shown) [Compound A27] | 70 | 70 | 80 | 80 | 80 | 80 | 20 | 30 | 80 | 80
5 | Cc1cc(C)c(C2C(=O)CC(CC(=O)NC3CC3)C2=O)c(C)c1 (stereo not shown) [Compound A15] | 80 | 50 | 100 | 100 | 100 | 100 | 20 | 20 | 80 | 80
6 | Cc1cc(C)c(C2C(=O)CC(CC(=O)NC(C)(C)C)C2=O)c(C)c1 (stereo not shown) [Compound A2, N-tert-butyl-2-[2,4-dioxo-3-(2,4,6-trimethylphenyl)cyclopentyl]-acetamide] | 80 | 10 | 50 | 70 | 80 | 80 | 10 | 10 | 80 | 70
7 | Cc1cc(-n2cc(Cl)cn2)cc(C)c1C1C(=O)CC(CC(=O)NC2(c3ccccn3)CC2)C1=O (stereo not shown) [Compound A73] | 70 | 10 | 90 | 90 | 40 | 30 | 20 | 80 | 70 | 80
8 | Cc1cc(-c2ncc(F)cn2)cc(C)c1C1C(=O)CC(CC(=O)NCc2cccc(C(F)(F)F)c2)C1=O (stereo not shown) [Compound A145] | 100 | 100 | 100 | 100 | 90 | 100 | 30 | 60 | 100 | 100
9 | C#Cc1cc(C)c(C2C(=O)CC(CC(=O)NC(C)(C)C)C2=O)c(C)c1 (stereo not shown) [Compound A43] | 100 | 100 | 90 | 100 | 90 | 100 | 50 | 90 | 100 | 90
